Laboratory results reported in patent EP2285386B1, “Use of ribose in the treatment of restless legs syndrome” (RiboCor, Inc., priority 2008, dated 2009).
Like-named read-outs stand apart in the source and are kept apart here.

Legend:
[1] = human, in vivo, iv, cited from earlier work
[2] = system: two familial males with RLS; experiment: Restless Legs Syndrome case study: oral D-ribose at three dosing regimens, symptom diary; format: in vivo, human; conditions: three weeks
Source text: We present a report on two familial males with RLS in which the supplementation of D-ribose produced a benefit in lessening the occurrence and severity of their daily symptoms. Both affected male individuals were from a positive family prevalence, three generations carrying the diagnosis of RLS. These males involved the latter two generations, parent and child, respectively. Both men had no underlying medical conditions. Their symptoms of RLS date back for decades and presently have progressed to the moderate to severe discomfort stage, mainly experienced during sedentary periods throughout the day with exacerbation of symptoms during nocturnal sleep.
Both individuals were introduced to D-ribose. To evaluate any potential benefits of D-ribose in RLS, each individual orally consumed D-ribose (five grams per dose) daily at different trial dosing regimens. Each trial dosing regimen lasted for three weeks with a two week interval washout between dosing regimens. The initial regimen involved a single dose of oral D- ribose consumed only at breakfast. The second dosing regimen involved consumption of oral D-ribose at breakfast and lunch. In the last dosing regiment, oral D-ribose was taken with all meals, breakfast, lunch and dinner. A diary pertaining to the documentation and severity of RLS symptoms was compiled.
The two week washout period between stages was designed to observe any return or worsening of their symptoms. […] Following completion of all dosing regimens of oral D-ribose and with the final wash out period, both males elected to re-start oral dosing of D-ribose at 5 grams/doses three times a day.

[3] = second regimen: oral, five grams at breakfast and lunch

Question: With `O=C[C@H](O)[C@H](O)[C@H](O)CO` [D-Ribose] as the molecule, how does the “D-Ribose levels in the serum” value ([1]; 60 mg/kg) read?
Answer: approximately 25 mg/dl

Question: What about the “half-life of D-Ribose in the serum” value ([1]; 60 mg/kg) of the same molecule?
Answer: 11 min

Question: What about the “D-Ribose levels in the serum” value ([1]; 100 mg/kg) of the same molecule?
Answer: approximately 25 mg/dl

Question: What about the “half-life of D-Ribose in the serum” value ([1]; 100 mg/kg) of the same molecule?
Answer: 16 min

Question: What about the serum level ([1]; 222.2 mg/kg) of the same molecule?
Answer: ≤ 86 mg/dL

Question: And the serum levels [1]?
Answer: ≤ 60 mg/dL

Question: What about the energy and fatigue ([2]; initial regimen: oral, five grams single dose at breakfast) of the same molecule?
Answer: general feeling of more energy and less fatigue

Question: What about the “leg twitching events and the urge to move during the day” value [2, 3] of the same molecule?
Answer: reduced for one of the subjects and rarely present in the other

Question: What about the “unpleasant sensations during the night” value [2, 3] of the same molecule?
Answer: Both still experienced the unpleasant sensations during the night
